According to paper PMC4728427, “Mechanism of allosteric activation of TMEM16A/ANO1 channels by a commonly used chloride channel blocker” (British Journal of Pharmacology, 2016):
Read-outs that look alike come from different tables or passages of the source.

Biological target: T1, Mouse TMEM16A (Mus musculus, UniProt Q8BHY3)
T1 construct: expressed in transfected cells; host or cells: HEK-293T
T1 sequence (Q8BHY3 1-960): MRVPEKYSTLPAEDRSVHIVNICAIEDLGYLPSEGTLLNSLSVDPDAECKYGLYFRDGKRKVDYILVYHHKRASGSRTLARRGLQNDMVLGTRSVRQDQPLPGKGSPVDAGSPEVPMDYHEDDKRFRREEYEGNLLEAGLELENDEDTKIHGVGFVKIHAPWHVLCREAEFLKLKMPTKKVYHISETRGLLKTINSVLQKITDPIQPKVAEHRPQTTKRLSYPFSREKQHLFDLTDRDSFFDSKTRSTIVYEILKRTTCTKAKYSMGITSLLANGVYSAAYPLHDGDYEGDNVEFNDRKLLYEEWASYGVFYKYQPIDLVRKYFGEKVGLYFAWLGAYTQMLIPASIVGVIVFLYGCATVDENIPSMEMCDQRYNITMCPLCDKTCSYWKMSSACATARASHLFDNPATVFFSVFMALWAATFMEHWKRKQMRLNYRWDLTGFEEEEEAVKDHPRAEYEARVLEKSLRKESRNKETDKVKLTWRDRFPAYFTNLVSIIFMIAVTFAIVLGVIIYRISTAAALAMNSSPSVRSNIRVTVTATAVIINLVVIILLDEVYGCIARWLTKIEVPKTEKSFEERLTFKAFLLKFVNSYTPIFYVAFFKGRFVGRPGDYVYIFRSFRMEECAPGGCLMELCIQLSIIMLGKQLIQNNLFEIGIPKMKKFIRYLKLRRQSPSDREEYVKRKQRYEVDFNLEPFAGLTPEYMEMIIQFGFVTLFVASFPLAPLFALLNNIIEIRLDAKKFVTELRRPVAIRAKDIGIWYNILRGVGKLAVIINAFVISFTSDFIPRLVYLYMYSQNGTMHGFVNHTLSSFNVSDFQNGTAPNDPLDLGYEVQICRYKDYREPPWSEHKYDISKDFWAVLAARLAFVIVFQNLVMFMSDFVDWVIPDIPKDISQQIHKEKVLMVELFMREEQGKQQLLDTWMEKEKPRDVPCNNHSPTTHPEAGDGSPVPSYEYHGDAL
Assay: Whole-cell concentration-jump protocol separating A9C block and activation, 300 nM [Ca2+]i
Type: cell-based
Conditions: for Ki: read-out: K i(0); for I a/I 0 for activation / fractional inhibition (I b/I 0): 30 μM [A9C]ext, +70 mV; for EC50 / IC50: [A9C]ext; for EC50: read-out: EC50 (b) activation; for IC50: read-out: IC50 (a) inhibition
Experimental: TMEM16A currents were measured with the whole‐cell or inside‐out patch configuration of the patch‐clamp technique as detailed in the Supporting Information. The exchange of solutions was achieved by using a local perfusion system consisting of eight tubes of 1.2 mm diameter in which the tip of the patch pipette was inserted. In some experiments, ultra‐rapid (<50 ms) changes in A9C concentration ([A9C]) (‘concentration jumps’) were achieved using a computer‐controlled perfusion system (Warner Instruments, Hamden, CT, USA).
The relationship between [A9C] and TMEM16A current inhibition was obtained by measuring the currents at the end of 250 ms V m steps from +20 to +120 mV in 20 mV increments elicited every 2 s from a holding V m of −70 mV. TMEM16A currents measured in the presence of A9C (I b) were normalized to currents measured in the absence of A9C (I 0) and plotted against [A9C]. The concentration–response curves obtained were fit with the Hill equation of the form: (1) Ib/Io=1/1+A9C/Ki^γ,
where K i is the apparent A9C dissociation constant from the inhibitory site and γ is the coefficient of cooperativity (Hill coefficient).
The dose–response curves for activation by A9C were fitted with a modified Hill equation of the form: (2) Ia/Io=1+Amax−1/1+A9C/Kd^h,
where I a is the current in the presence of A9C, A max is the maximal current activation, K d is the apparent A9C dissociation constant from the activating site and h is the coefficient of cooperativity (Hill coefficient).
The relationships between the K i or K d and V m were fitted with the Woodhull equation (Woodhull, 1973): (3) Kx=Kx0exp−δxzFVm/RT.
The subscript ‘x’ stands for either ‘i’ or ‘d’. Thus, K i(0) or K d(0) are the apparent A9C dissociation constants from the inhibitory or activating site at 0 mV, z is the A9C electric valence (−1), δ i or δ d is the fraction of the V m sensed by A9C when bound to the inhibitory or activating site, F is Faraday's constant, R is the universal gas constant and T is the absolute temperature.
To study the activating effect of extracellular A9C on TMEM16A currents in isolation from A9C‐mediated inhibition, the following stimulation protocol was used. Whole‐cell currents were measured in response to a constant V m of +70 mV and in the presence of 300 nM [Ca^2+]i. Under these recording conditions and in the absence of extracellular A9C, the TMEM16A current remained at a constant amplitude (Figure 5A). When A9C was rapidly applied to the bath solution (concentration jump), the current amplitude rapidly declined before increasing to a new steady‐state level (Figure 5A and 5B). As A9C was removed, a dramatic increase in current was observed followed by a rapid return of the current to the level measured in the absence of A9C (Figure 5A and 5B). […] Rapid washout of A9C led to the fast relief of channel block, while the allosteric activating effect appeared to persist. Thus, the inhibitory effect of A9C was estimated by back‐extrapolating the current amplitude (I b) to the point when the drug was added. The current activation (I a) was measured via back‐extrapolation of the transient current spike observed upon drug washout.
Each cell was exposed to various [A9C]ext, and the extent of blockage at each concentration expressed as I b/I 0. The extent of current activation at each [A9C]ext was assessed as I a/I 0.
To determine if the activating effect of [A9C]ext on the TMEM16A current is V m‐dependent, experiments similar to those described above were performed at constant V m of +10 and +40 mV (Figure 5C). From the average data presented in Figure 5C and Table 2, it can be concluded that both inhibition and activation are V m‐dependent.
As outlined in the previous section, the current inhibition and activation induced by extracellular A9C presented a very similar degree of V m‐dependence. […]

[1] = high (154 mM) [Cl−]ext, 300 nM [Ca2+]i
[2] = low (34 mM) [Cl−]ext, 300 nM [Ca2+]i

Ki (300 nM [Ca2+]i (rounded in Discussion)): ~8.4 mM
δ d (300 nM [Ca2+]i, Woodhull fit): 0.66 ± 0.03
δ i (300 nM [Ca2+]i, Woodhull fit): 0.68 ± 0.03
Kd (300 nM [Ca2+]i, extracellular A9C, Woodhull fit, read-out: K d(0) (apparent dissociation constant from activating site at 0 mV)): 8.95 ± 0.378 mM
Ki (300 nM [Ca2+]i, extracellular A9C, Woodhull fit): 8.37 ± 0.372 mM
I a/I 0 for activation [1]: 2.0 ± 0.1
fractional inhibition (I b/I 0) [1]: 0.70 ± 0.02
I a/I 0 for activation [2]: 8.2 ± 1.1
fractional inhibition (I b/I 0) [2]: 0.46 ± 0.06
h (b) Hill coefficient (activation) (V m 10 mV, 300 nM [Ca2+]i): 1.1 ± 0.1 (n = 9)
γ (a) Hill coefficient (inhibition) (V m 10 mV, 300 nM [Ca2+]i): 0.4 ± 0.1 (n = 9)
EC50 (V m 10 mV, 300 nM [Ca2+]i): 5.23 ± 0.582 mM
IC50 (V m 10 mV, 300 nM [Ca2+]i): 4.71 ± 0.478 mM
h (b) Hill coefficient (activation) (V m 40 mV, 300 nM [Ca2+]i): 1.2 ± 0.1 (n = 11)
γ (a) Hill coefficient (inhibition) (V m 40 mV, 300 nM [Ca2+]i): 0.4 ± 0.1 (n = 11)
EC50 (V m 40 mV, 300 nM [Ca2+]i): 1.12 ± 0.126 mM
IC50 (V m 40 mV, 300 nM [Ca2+]i): 0.849 ± 0.14 mM
h (b) Hill coefficient (activation) (V m 70 mV, 300 nM [Ca2+]i): 1.1 ± 0.1 (n = 11)
γ (a) Hill coefficient (inhibition) (V m 70 mV, 300 nM [Ca2+]i): 0.4 ± 0.1 (n = 11)
EC50 (V m 70 mV, 300 nM [Ca2+]i): 0.44 ± 0.069 mM
IC50 (V m 70 mV, 300 nM [Ca2+]i): 0.171 ± 0.021 mM
electric distance of activating binding site (δ d) (Woodhull analysis, rounded): ~ 0.6
Structure (SMILES): O=C(O)c1c2ccccc2cc2ccccc12 [A9C, Anthracene‐9‐carboxylic acid]
